Test system: PC12 cells
Assay: neurite outgrowth from PC12 cells measured by laser scanning line amplitudes
Assay type: cell-based
Details: NGF added, after six days, FIG. 5
Excerpt: The method of the invention was applied to the measurement of neurite outgrowth from PC12 cells. The neurites are much smaller than the cells and the laser beam, being only one micron in diameter in some cases. […] The extent of differentiation can be measured by considering the characteristic gaussian fit, multi-peaks ratio, sample width and number of inflections of the line amplitudes of the two populations. Any combination of these measurements from the line amplitudes may be used as a quantitative measure of differentiation.
If the line-to-line spacing of the scan is sufficiently small it is also possible to produce a representation of each cell in 3D (FIG. 6). This provides confirmation of the ability of the method to characterise differentiation.

## nerve growth factor [NGF]
  differentiation (neurite outgrowth) of the cell population: the majority differentiated with neurite outgrowths
